Legend:
Assay type in all cases: biochemical
MMP-2 = target: T1, MMP-2 (Homo sapiens, UniProt P08253); assay: Assay for inhibitory activities on MMPs (fluorogenic peptide substrate), MMP-2
T1 sequence (P08253 110-660): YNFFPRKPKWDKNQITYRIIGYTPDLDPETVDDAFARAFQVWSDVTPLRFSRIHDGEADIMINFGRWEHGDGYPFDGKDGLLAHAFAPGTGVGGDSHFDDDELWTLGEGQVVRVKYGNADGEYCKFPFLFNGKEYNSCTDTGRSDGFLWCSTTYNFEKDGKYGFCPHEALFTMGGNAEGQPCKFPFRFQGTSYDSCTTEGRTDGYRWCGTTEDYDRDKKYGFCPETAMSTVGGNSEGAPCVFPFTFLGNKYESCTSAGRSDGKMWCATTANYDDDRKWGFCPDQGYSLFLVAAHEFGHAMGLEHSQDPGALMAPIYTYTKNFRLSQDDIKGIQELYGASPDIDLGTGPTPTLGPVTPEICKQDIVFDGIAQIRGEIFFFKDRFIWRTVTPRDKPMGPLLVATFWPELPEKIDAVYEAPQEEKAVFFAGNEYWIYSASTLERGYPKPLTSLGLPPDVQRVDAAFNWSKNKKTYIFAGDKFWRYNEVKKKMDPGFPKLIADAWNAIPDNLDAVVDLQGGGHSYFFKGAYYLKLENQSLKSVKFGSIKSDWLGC
Procedure: MMP-2 was purchased from Calbiochem-Novabiochem International, Inc.
(§1) The enzymatic activity on MMPs was analyzed by the method described in “C. Graham Knight, Frances Willenbrock and Gillian Murphy: A novel coumarin-labelled peptide for sensitive continuous assays of the matrix metalloproteinases: FEBS LETT., 296, (1992), 263-266”. The substrate: MOCAc-Pro-Leu-Gly-Leu-A2Pr(DNP)-Ala-Arg-NH2 was purchased from Peptide Institute, Inc., Osaka, Japan. The measurement of the inhibitory activities (IC50) was carried out by the following four methods;
(§2) (A) Reaction with substrate, enzyme (MMPs) and inhibitor
(§3) (B) Reaction with substrate and inhibitor, without enzyme
(§4) (C) Reaction with substrate and enzyme (MMPs), without inhibitor
(§5) (D) Reaction with substrate only
(§6) IC50 values were calculated by using the following formula and each fluorescence values of above four methods (A to D).
(§7) % inhibition={1-(A−B)/(C−D)}×100
(§8) IC50 means the concentration required to inhibit 50% of the enzyme activity.
(§9) The value of inhibitory activity against MMP-2, MMP-8, MMP-9, MMP-12, and MMP-13 measured by above mentioned methods are shown in Table 25 and 26.

MMP-9 = MMP-9 (Homo sapiens, UniProt P14780); assay: Assay for inhibitory activities on MMPs (fluorogenic peptide substrate), MMP-9
Sequence of MMP-9 (P14780 107-707): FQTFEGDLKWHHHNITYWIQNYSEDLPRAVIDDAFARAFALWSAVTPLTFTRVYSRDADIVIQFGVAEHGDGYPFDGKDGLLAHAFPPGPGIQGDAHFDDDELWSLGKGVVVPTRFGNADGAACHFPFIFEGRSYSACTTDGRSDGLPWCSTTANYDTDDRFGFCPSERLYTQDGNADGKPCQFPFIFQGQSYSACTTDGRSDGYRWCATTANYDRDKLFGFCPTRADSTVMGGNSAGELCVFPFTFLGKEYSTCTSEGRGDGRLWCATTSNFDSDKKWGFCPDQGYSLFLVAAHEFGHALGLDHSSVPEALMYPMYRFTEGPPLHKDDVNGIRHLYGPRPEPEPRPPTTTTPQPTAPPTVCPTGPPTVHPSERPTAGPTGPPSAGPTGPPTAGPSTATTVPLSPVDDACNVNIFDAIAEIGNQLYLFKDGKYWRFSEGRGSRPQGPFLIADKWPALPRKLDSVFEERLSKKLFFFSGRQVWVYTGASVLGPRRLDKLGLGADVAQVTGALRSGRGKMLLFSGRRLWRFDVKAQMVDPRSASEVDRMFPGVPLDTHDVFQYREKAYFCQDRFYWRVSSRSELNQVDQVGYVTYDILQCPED
Description: MMP-9 was isolated and purified by the procedure of Y. Okada et al. (Yasunori Okada, Yukio Gonoji, Katsumi Naka, Katsuro Tomita, Isao Nakanishi, Kazushi Iwata, Kyoko Yamashita, and Taro Hayakawa: Matrix metalloproteinase 9 (92-kDa gelatinase/type IV collagenase) from HT1080 human fibrosarcoma cells. Purification and activation of the precursor and enzymic properties, J. Biol. Chem., 1992, 267, 21712-21719) in combination with other following methods: 1) Yasunori Okada, Tatsuhisa Morodomi, Jan J, Enghild, Ko Suzuki, Atsushi Yasui, Isao Nakanishi, Guy Salvesen and Hideaki Nagase: Matrix metalloproteinase 2 from human rheumatoid synovial fibroblasts. Purification and activation of the precursor and enzymic properties, Eur. J. Biochem., 1990, 194, 721-730; 2) Robin V Ward, Rosalind M Hembry, John J Reynolds and Gillian Murphy: The purification of tissue inhibitor of metalloproteinase-2 from its 72 kDa progelatinase complex. Biochem. J., 1991, 278, 179-187. In detail, human fibrosarcoma ATCC HT1080 cell line was cultured to confluent in Dulbecco's Modified Medium (DMEM) containing 10% fetal-calf serum at 37° C. for 48 hours. Subsequently, the medium of confluent culture was changed to serum-free DMEM medium. To obtain MMP-9, phorbol-12-myristate-13-acetate (TPA) must be added to this serum-free DMEM medium at a concentration of 50 ng/ml. The TPA-treated medium was centrifuged at 3000 rpm for 15 min, and the supernatant was concentrated to 450 ml by a Toyo-Roshi UP-20 apparatus with an ultrafiltration membrane. Then, proMMP-9 in this concentrated solution was purified by using columns of Gelatin-Sepharose and Concanavalin A-Sepharose. The pool containing proMMP-9 was dialyzed, concentrated (Toyo-Roshi UP-20) and applied to columns of Sephacryl S-200 and Green A matrix for the separation from TIMPs. The obtained proMMP-9 fraction was activated by TPCK-Trypsin (Final conc.: 3 μg/501 React Mix.).
as §1, §2, §3, §4, §5, §6, §7, §8, §9

MMP-13 = target: T2, MMP-13 (Homo sapiens, UniProt P45452); assay: Assay for inhibitory activities on MMPs (fluorogenic peptide substrate), MMP-13
T2 construct: catalytic domain (^104Tyr˜^267Gly) was amplified with RT-PCR; His-tag; enterokinase digestion-site
Procedure: In regard to MMP-13, mRNA was prepared from carcinoma cell SW1353 derived from human cartilage stimulate by IL-1 and TNF, and catalytic domain (^[…]) was amplified with RT-PCR. This was cloned in Escherichia coli expression vector […] inserted with His-tag sequence and enterokinase digestion-site, induced and expressed by IPTG (Isopropyl-β-D-thiogalactopyranoside) and expressed in an insoluble fraction. Isolation of MMP-13 from an insoluble fraction was carried out by dissolving in modifier (6 M urea) by a usual method and purification with metal chelate chromatography (Ni […] Sepharose). And then removing modifier (6 M urea) with dialyze and refolding of the enzyme spontaneously gave activated MMP-13. The enzymatic activity on MMPs was analyzed by the method described in “C. Graham Knight, Frances Willenbrock and Gillian Murphy: A novel coumarin-labelled peptide for sensitive continuous assays of the matrix metalloproteinases: FEBS LETT., 296, (1992), 263-266”. The substrate: MOCAc-[…] was purchased from Peptide Institute, Inc., Osaka, Japan. The measurement of the inhibitory activities (IC50) was carried out by the following four methods; (A) Reaction with substrate, enzyme (MMPs) and inhibitor (B) Reaction with substrate and inhibitor, without enzyme (C) Reaction with substrate and enzyme (MMPs), without inhibitor (D) Reaction with substrate only IC50 values were calculated by using the following formula and each fluorescence values of above four methods (A to D). % inhibition={1-(A-B)/(C-D)}×100 IC50 means the concentration required to inhibit 50% of the enzyme activity. The value of inhibitory activity against MMP-2, MMP-8, MMP-9, MMP-12, and MMP-13 measured by above mentioned methods are shown in Table 25 and 26.

MMP-8 = target: T3, MMP-8 (Homo sapiens, UniProt P22894); assay: Assay for inhibitory activities on MMPs (fluorogenic peptide substrate), MMP-8
T3 construct: In regard to MMP-8, catalytic domain (^99Phe˜^262Gly) was amplified with PCR; His-tag; enterokinase digestion-site
T3 sequence (P22894 99-262): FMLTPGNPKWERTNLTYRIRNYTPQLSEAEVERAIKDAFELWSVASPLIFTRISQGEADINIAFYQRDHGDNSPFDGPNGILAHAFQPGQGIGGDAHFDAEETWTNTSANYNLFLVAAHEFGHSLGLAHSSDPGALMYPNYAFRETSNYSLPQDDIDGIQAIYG
Description: In regard to MMP-8, catalytic domain (^99Phe˜^262Gly) was amplified with PCR using commercial available Human Bone Marrow cDNA. This was cloned in Escherichia coli expression vector pTrc99AHE inserted with His-tag sequence and enterokinase digestion-site, induced and expressed by IPTG (Isopropyl-β-D-thiogalactopyranoside) and expressed in a insoluble fraction (Than F. Ho, M. Walid Qoronfleh, Robert C. Wahl, Trica A. Pulvino, Karen J. Vavra, Joe Falvo, Tracey M. Banks, Patricia G. Brake and Richard B. Ciccarelli: Gene expression, purification and characterization of recombinant human neutrophil collagenase. Gene 146, (1994) 297-301. It was prepared by the method in a slight modification). Isolation of MMP-8 from an insoluble fraction was carried out by dissolving in modifier (6 M urea) by a usual method and purification with metal chelate chromatography. And then removing modifier (6 M urea) with dialysis and refolding of the enzyme spontaneously gave activated MMP-8.
as §1, §2, §3, §4, §5, §6, §7, §8, §9

MMP-12 = target: T4, MMP-12 (Homo sapiens, UniProt P39900); assay: Assay for inhibitory activities on MMPs (fluorogenic peptide substrate), MMP-12
T4 construct: In regard to MMP-12, catalytic domain (^100Phe˜^263Gly) was amplified with RT-PCR; His-tag; enterokinase digestion-site
T4 sequence (P39900 100-263): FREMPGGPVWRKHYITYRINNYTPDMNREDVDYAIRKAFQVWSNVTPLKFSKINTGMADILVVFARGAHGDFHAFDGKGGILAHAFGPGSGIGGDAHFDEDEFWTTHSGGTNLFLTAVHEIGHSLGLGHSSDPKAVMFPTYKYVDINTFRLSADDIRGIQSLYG
Procedure: In regard to MMP-12, catalytic domain (^100Phe˜^263Gly) was amplified with RT-PCR from Human Placenta Total RNA. This was cloned in Escherichia coli expression vector pTrc99AHE inserted with His-tag sequence and enterokinase digestion-site, induced and expressed by IPTG (Isopropyl-β-D-thiogalactopyranoside) and expressed in an insoluble fraction. Isolation of MMP-12 from an insoluble fraction was carried out by dissolving in modifier (6 M urea) by a usual method and purification with metal chelate chromatography (Ni Chelateing Sepharose). And then removing modifier (6 M urea) with dialysis and refolding of the enzyme spontaneously gave activated MMP-12.
as §1, §2, §3, §4, §5, §6, §7, §8, §9

Compound	IC50 (MMP-2) [µM]	IC50 (MMP-9) [µM]	IC50 (MMP-13) [µM]	IC50 (MMP-8) [µM]	IC50 (MMP-12) [µM]
COc1ccc(C(=O)Nc2ccc(-c3ccc(S(=O)(=O)N[C@H](Cc4ccccc4)C(=O)O)cc3)cc2)cc1OC [VI-8]	1.05	> 10	0.0272	0.723	0.839
COc1ccc(C(=O)Nc2ccc(-c3ccc(S(=O)(=O)N[C@H](Cc4ccccc4)C(=O)O)cc3)cc2)cc1 [VI-3]	0.239	> 10	0.0326	> 10	1.1
O=C(Nc1ccc(-c2ccc(S(=O)(=O)N[C@H](Cc3ccccc3)C(=O)O)cc2)cc1)c1ccc(F)cc1 [VI-6]	0.235	> 10	0.0394	> 10	> 10
CC(C)(C)[C@H](NS(=O)(=O)c1ccc(-c2ccc(NC(=O)c3cc4ccccc4s3)cc2)cc1)C(=O)O [VI-49]	0.241	> 10	0.01	0.158	0.0988
CC(C)C[C@@H](NS(=O)(=O)c1ccc(-c2ccc(NC(=O)c3ccc4ccccc4c3)cc2)cc1)C(=O)O [VI-41]	> 10	> 10	0.178	> 10	> 10
O=C(Nc1ccc(-c2ccc(S(=O)(=O)N[C@@H](Cc3ccccc3)C(=O)O)cc2)cc1)c1ccc2ccccc2c1 [VI-36]	> 10	> 10	0.0651	> 10	7.97
O=C(/C=C/c1ccccc1)Nc1ccc(-c2ccc(S(=O)(=O)N[C@H](Cc3ccccc3)C(=O)O)cc2)cc1 [VI-9]	0.178	> 10	0.0446	> 10	> 10
COc1cccc(C(=O)Nc2ccc(-c3ccc(S(=O)(=O)N[C@H](Cc4ccccc4)C(=O)O)cc3)cc2)c1 [VI-5]	0.66	> 10	0.0501	0.623	1.23

Continued, values first:

IC50 (MMP-2) [µM]	IC50 (MMP-9) [µM]	IC50 (MMP-13) [µM]	IC50 (MMP-8) [µM]	IC50 (MMP-12) [µM]	Compound
> 10	> 10	0.0199	> 10	> 10	COc1ccc2cc(C#Cc3ccc(-c4ccc(S(=O)(=O)N[C@@H](C)C(=O)O)cc4)cc3)ccc2c1 [III-18]
5.01	> 10	0.00349	> 10	5.29	COc1ccc2cc(C#Cc3ccc(-c4ccc(S(=O)(=O)N[C@H](CO)C(=O)O)cc4)cc3)ccc2c1 [III-44]
> 10	> 10	0.143	> 10	> 10	COc1ccc2cc(C#Cc3ccc(-c4ccc(S(=O)(=O)NC(Cc5ccc(F)cc5)C(=O)O)cc4)cc3)ccc2c1 (stereo not drawn) [III-47]
> 10	> 10	0.1	> 10	> 10	COc1ccc(C[C@H](NS(=O)(=O)c2ccc(-c3ccc(C#Cc4ccc5cc(OC)ccc5c4)cc3)cc2)C(=O)O)cc1 [III-48]
0.499	> 10	0.0151	0.261	0.363	CC(C)C[C@@H](NS(=O)(=O)c1ccc(-c2ccc(C#Cc3ccc4ccccc4c3)cc2)cc1)C(=O)O [III-6]
> 10	> 10	0.0557	5.71	9.68	COc1ccc2cc(C#Cc3ccc(-c4ccc(S(=O)(=O)N[C@H](CC(C)C)C(=O)O)cc4)cc3)ccc2c1 [III-22]
0.167	> 10	0.015	0.154	0.128	COc1ccc2cc(C#Cc3ccc(-c4ccc(S(=O)(=O)N[C@@H](C(=O)O)C(C)C)cc4)cc3)ccc2c1 [III-20]
> 4	> 10	0.00573	0.0369	0.0583	COc1ccc2cc(C#Cc3ccc(-c4ccc(S(=O)(=O)N[C@H](C(=O)O)C(C)C)cc4)cc3)ccc2c1 [III-21]
0.327	> 10	0.00432	0.0131	0.0202	CC(C)C[C@H](NS(=O)(=O)c1ccc(-c2ccc(C#Cc3ccc4ccccc4c3)cc2)cc1)C(=O)O [III-7]
0.0506	> 10	0.0138	0.243	0.125	COCC(NS(=O)(=O)c1ccc(-c2ccc(C#Cc3ccc4cc(OC)ccc4c3)cc2)cc1)C(=O)O (stereo not drawn) [III-50]

— patent US20080119513A1, “Sulfonamide Derivative Selectively Inhibiting Mmp-13” (priority 2004, published 2008)
